Results from ChEMBL document CHEMBL4765228, “Indole-like Trk receptor antagonists” (Eur J Med Chem, 2016).
Converted amounts (≈) assume the structure as drawn. The source made the active and inactive calls. The rule behind the calls is not given here.

Legend:
[1] = biological target: T1, Serine/threonine-protein kinase Sgk1 (Homo sapiens) (UniProt O00141); assay: Inhibition of human SGK1 assessed as residual activity at 1 uM relative to control
T1 sequence (whole entry): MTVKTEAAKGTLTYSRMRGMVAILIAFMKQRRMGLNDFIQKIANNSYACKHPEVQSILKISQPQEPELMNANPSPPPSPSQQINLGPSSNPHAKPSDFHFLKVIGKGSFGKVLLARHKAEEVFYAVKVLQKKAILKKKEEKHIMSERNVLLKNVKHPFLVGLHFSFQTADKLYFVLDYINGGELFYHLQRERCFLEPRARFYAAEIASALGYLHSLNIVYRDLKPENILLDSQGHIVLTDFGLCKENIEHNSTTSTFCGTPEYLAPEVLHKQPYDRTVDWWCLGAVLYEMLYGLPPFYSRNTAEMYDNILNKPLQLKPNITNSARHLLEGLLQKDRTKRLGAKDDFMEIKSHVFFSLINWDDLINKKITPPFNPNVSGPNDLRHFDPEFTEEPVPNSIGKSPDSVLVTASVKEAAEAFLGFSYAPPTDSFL

[2] = biological target: Aurora kinase B (Homo sapiens) (UniProt Q96GD4); assay: Inhibition of human Aurora-B assessed as residual activity at 1 uM relative to control
Chain of Aurora kinase B (Homo sapiens) (Q96GD4 whole entry): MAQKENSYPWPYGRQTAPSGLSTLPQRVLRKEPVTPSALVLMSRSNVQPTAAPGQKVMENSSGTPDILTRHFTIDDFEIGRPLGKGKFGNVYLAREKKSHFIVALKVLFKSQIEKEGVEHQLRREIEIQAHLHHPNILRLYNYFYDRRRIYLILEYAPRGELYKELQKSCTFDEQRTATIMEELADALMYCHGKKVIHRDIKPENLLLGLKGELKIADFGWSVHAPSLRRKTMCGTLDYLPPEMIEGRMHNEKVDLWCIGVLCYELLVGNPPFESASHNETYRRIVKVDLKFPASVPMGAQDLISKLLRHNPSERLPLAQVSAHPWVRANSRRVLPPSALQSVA

[3] = biological target: Receptor tyrosine-protein kinase erbB-4 (Homo sapiens) (UniProt Q15303); assay: Inhibition of human ERBB4 assessed as residual activity at 0.1 uM relative to control
[4] = biological target: Tyrosine-protein kinase Lck (Homo sapiens) (UniProt P06239); assay: Inhibition of human LCK assessed as residual activity at 1 uM relative to control
Chain of Tyrosine-protein kinase Lck (Homo sapiens) (P06239 2-509 limits assumed): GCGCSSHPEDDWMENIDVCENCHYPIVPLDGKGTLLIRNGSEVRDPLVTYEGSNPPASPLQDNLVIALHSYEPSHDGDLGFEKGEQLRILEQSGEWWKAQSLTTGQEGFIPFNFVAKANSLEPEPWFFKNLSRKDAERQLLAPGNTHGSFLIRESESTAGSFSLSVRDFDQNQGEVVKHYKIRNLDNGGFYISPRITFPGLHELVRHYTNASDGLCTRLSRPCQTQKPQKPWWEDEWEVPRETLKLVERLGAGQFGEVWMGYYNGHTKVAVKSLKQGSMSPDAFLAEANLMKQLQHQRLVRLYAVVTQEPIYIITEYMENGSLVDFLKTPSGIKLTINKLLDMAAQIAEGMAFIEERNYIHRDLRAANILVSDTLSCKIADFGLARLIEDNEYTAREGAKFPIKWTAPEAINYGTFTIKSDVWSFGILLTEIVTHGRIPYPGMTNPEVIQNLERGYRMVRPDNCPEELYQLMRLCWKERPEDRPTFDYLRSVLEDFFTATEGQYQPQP

[5] = biological target: BDNF/NT-3 growth factors receptor (Mus musculus) (UniProt P15209); assay: Inhibition of TrkB phosphorylation in mouse MG87 cells transfected with pFA2-Elk plasmid and pFR-luciferase plasmid at 1 uM after 5 mins in presence of BDNF by Western blot analysis; format: cell-based
[6] = biological target: High affinity nerve growth factor receptor (Rattus norvegicus) (UniProt P35739); assay: Inhibition of TrkA in rat PC-12 cells assessed as reduction in Akt phosphorylation at 0.01 to 1 uM after 5 mins in presence of NGF by Western blot analysis; format: cell-based; details: dose 0.01-1 µM
[7] = biological target: Casein kinase II subunit alpha (Homo sapiens) (UniProt P68400); assay: Inhibition of human CK2alpha1 assessed as residual activity at 0.1 uM relative to control
Chain of Casein kinase II subunit alpha (Homo sapiens) (P68400 whole entry, looked up): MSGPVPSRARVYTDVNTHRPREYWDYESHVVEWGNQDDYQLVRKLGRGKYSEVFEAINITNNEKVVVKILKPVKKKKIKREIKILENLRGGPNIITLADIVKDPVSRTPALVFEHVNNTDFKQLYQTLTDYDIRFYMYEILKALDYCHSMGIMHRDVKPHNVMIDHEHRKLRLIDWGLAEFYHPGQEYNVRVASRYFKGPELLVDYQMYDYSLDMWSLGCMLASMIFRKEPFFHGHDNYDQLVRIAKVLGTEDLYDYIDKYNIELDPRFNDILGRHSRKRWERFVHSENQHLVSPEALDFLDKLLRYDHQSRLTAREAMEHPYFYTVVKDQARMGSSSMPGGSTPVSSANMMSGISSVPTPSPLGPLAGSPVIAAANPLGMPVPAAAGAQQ

[8] = biological target: High affinity nerve growth factor receptor (Rattus norvegicus) (UniProt P35739); assay: Inhibition of TrkA in rat PC12 cells assessed as reduction in ERK1/ERK2 phosphorylation at 0.01 to 1 uM after 5 mins in presence of NGF by Western blot analysis; format: cell-based; details: PC-12, dose 0.01-1 µM
[9] = system: MG87; assay: Cytotoxicity against mouse MG87 cells transfected with pFA2-Elk plasmid and pFR-luciferase plasmid assessed as cellular ATP content at 0.01 to 1 uM after 24 hrs by CellTiter-Glo luminescent analysis; format: functional, cell-based; details: dose 0.01-1 µM
[10] = biological target: BDNF/NT-3 growth factors receptor (Mus musculus) (UniProt P15209); assay: Inhibition of TrkB in mouse MG87 cells transfected with pFA2-Elk plasmid and pFR-luciferase plasmid assessed as reduction in ERK1/ERK2 phosphorylation at 0.01 to 1 uM after 5 mins in presence of BDNF by Western blot analysis; format: cell-based; details: dose 0.01-1 µM
[11] = biological target: Ephrin type-A receptor 2 (Homo sapiens) (UniProt P29317); assay: Inhibition of human EPHA2 assessed as residual activity at 1 uM relative to control
Chain of Ephrin type-A receptor 2 (Homo sapiens) (P29317 whole entry): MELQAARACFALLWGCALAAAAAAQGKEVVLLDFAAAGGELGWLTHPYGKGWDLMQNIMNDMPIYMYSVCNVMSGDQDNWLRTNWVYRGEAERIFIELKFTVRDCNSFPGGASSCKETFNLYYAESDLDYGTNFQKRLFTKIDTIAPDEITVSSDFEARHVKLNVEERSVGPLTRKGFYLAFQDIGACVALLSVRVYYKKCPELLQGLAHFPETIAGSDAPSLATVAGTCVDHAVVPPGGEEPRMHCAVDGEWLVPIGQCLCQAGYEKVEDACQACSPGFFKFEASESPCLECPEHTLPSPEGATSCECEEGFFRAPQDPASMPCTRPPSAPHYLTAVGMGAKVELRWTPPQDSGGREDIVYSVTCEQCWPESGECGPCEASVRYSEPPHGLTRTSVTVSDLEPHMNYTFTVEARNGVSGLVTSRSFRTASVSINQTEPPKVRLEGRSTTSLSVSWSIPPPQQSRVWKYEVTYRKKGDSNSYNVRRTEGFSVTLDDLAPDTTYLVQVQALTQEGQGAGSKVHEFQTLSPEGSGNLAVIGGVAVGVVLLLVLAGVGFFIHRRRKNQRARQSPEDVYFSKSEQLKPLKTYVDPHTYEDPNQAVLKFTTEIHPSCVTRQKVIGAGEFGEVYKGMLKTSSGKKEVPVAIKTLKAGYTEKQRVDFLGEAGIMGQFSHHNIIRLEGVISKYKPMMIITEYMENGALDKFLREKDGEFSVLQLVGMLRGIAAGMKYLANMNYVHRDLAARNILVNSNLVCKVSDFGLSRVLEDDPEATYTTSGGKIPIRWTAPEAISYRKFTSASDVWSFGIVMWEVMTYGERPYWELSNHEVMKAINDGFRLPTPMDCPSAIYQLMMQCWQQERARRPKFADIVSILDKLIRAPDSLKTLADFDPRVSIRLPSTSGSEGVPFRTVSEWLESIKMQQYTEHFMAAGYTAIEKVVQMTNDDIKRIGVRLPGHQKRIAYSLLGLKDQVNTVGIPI

[12] = biological target: BDNF/NT-3 growth factors receptor (Mus musculus) (UniProt P15209); assay: Inhibition of TrkB in mouse MG87 cells transfected with pFA2-Elk plasmid and pFR-luciferase plasmid assessed as reduction in Akt phosphorylation at 0.01 to 1 uM after 5 mins in presence of BDNF by Western blot analysis; format: cell-based; details: dose 0.01-1 µM
[13] = biological target: High affinity nerve growth factor receptor (Rattus norvegicus) (UniProt P35739); assay: Inhibition of TrkA phosphorylation in rat PC12 cells at 1 uM after 5 mins in presence of NGF by Western blot analysis; format: cell-based; details: PC-12
[14] = biological target: MAP/microtubule affinity-regulating kinase 3 (Homo sapiens) (UniProt P27448); assay: Inhibition of human MARK3 assessed as residual activity at 1 uM relative to control
[15] = biological target: T2, BDNF/NT-3 growth factors receptor (Homo sapiens, UniProt Q16620); assay: Inhibition of TrkB (unknown origin)
T2 sequence (Q16620 whole entry, the tested form may be a part): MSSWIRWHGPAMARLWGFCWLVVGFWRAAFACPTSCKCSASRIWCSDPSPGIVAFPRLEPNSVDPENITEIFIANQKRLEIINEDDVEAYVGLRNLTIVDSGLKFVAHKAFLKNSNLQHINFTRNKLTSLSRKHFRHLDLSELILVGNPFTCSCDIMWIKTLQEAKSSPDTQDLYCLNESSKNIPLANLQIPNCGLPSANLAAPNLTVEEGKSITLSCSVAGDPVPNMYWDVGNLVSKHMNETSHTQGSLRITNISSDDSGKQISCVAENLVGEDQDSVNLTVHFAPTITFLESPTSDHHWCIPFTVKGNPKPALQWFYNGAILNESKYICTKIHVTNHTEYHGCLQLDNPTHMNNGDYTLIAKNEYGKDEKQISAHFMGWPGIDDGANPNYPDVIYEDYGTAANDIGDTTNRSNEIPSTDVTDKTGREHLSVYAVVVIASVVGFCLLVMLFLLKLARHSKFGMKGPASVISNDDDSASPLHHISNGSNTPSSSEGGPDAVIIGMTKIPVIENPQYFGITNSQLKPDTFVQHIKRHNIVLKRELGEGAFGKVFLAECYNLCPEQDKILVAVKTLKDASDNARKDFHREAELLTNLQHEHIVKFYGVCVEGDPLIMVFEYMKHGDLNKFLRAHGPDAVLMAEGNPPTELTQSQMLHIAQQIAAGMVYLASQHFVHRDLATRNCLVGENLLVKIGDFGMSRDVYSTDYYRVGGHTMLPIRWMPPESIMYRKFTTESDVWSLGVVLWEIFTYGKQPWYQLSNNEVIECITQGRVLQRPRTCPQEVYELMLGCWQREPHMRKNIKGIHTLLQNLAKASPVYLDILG

[16] = biological target: Tyrosine-protein kinase SYK (Homo sapiens) (UniProt P43405); assay: Inhibition of human SYK (1 to 635 residues) assessed as residual activity at 1 uM relative to control
[17] = biological target: T3, High affinity nerve growth factor receptor (Homo sapiens, UniProt P04629); assay: Inhibition of GAL4 fused TrkA (unknown origin) expressed in PC12 cells transfected with pFA2-Elk plasmid and pFR-luciferase plasmid measured for 18 hrs by luciferase reporter gene assay; format: cell-based, Rattus norvegicus, PC-12
T3 sequence (P04629 whole entry, the tested form may be a part): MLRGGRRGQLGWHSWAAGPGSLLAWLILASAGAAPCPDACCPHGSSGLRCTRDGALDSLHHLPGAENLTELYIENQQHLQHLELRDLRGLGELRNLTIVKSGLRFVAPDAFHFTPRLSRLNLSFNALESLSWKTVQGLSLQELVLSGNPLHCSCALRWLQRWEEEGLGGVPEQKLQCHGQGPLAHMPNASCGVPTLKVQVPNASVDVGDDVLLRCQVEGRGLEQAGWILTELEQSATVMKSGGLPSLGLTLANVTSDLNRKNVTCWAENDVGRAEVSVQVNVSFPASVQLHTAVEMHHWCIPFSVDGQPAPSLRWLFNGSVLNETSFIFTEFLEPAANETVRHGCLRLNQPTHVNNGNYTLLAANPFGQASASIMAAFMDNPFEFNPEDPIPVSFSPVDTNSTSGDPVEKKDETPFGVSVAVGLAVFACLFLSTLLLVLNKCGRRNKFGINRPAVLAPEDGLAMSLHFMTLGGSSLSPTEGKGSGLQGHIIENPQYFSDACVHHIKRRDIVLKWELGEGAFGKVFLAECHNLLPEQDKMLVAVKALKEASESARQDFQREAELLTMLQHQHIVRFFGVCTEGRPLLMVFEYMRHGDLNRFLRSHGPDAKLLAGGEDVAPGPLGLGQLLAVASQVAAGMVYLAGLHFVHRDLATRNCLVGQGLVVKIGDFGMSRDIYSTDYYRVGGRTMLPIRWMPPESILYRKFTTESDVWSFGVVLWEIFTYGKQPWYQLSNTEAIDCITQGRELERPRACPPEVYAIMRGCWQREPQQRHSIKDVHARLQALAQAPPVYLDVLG

[18] = biological target: NT-3 growth factor receptor (Homo sapiens, UniProt Q16288); assay: Inhibition of TrkC (unknown origin)
Chain of NT-3 growth factor receptor (Q16288 whole entry): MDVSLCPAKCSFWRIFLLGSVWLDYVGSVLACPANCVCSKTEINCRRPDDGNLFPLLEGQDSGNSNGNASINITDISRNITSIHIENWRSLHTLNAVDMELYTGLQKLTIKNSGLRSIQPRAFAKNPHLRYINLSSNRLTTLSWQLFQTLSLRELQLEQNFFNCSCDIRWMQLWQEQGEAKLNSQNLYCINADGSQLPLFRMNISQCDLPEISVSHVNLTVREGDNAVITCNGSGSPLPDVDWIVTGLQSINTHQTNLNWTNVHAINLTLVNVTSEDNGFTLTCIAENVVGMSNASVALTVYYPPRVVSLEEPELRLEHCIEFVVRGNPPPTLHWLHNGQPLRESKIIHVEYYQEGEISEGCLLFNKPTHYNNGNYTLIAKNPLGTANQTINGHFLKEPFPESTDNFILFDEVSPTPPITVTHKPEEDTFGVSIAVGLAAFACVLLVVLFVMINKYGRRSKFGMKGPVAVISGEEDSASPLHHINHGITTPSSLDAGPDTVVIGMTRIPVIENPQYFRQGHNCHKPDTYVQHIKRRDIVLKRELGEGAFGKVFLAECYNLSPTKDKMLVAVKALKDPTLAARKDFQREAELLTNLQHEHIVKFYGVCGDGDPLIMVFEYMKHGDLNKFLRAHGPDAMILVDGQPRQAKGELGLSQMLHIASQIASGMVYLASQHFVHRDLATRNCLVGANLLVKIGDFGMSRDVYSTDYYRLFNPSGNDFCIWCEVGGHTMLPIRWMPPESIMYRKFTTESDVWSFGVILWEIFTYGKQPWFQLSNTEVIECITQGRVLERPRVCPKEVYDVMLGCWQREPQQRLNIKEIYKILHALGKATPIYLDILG

[19] = biological target: T3, High affinity nerve growth factor receptor; assay: Inhibition of TrkA (unknown origin)
[20] = biological target: Tyrosine-protein kinase SYK (Homo sapiens) (UniProt P43405); assay: Inhibition of human SYK (1 to 635 residues) assessed as residual activity at 0.1 uM relative to control
[21] = system: Cortical neurone; assay: Cytotoxicity against Wistar rat cortical neuron assessed as neuron survival at 0.01 to 1 uM incubated for 24 hrs; format: cell-based; details: dose 0.01-1 µM
[22] = Aqueous solubility of the compound […] incubated for 60 min by RP-HPLC-DAD analysis; format: physicochemical
[23] = biological target: T2, BDNF/NT-3 growth factors receptor; assay: Inhibition of GAL4 fused TrkB (unknown origin) expressed in MG87 cells transfected with pFA2-Elk plasmid and pFR-luciferase plasmid measured for 18 hrs by luciferase reporter gene assay; format: cell-based

| Compound | Activity [1] [%] | Activity [2] [%] | Activity [3] [%] | Activity [4] [%] | inhibition [5] | inhibition [6] | Activity [7] [%] | inhibition [8] | inhibition [10] | Activity [11] [%] | inhibition [12] | inhibition [13] | Activity [14] [%] | IC50 [15] [nM] | Activity [16] [%] | IC50 [17] [nM] | IC50 [18] [nM] | IC50 [19] [nM] | Activity [20] [%] | Activity [9] | further results |
| --- | --- | --- | --- | --- | --- | --- | --- | --- | --- | --- | --- | --- | --- | --- | --- | --- | --- | --- | --- | --- | --- |
| COc1ccc2[nH]cc(/C=C3\C(=O)Nc4ccc(S(N)(=O)=O)cc43)c2c1 | 49 | 48 | 94 | 61 |  |  | 90 |  |  | 98 |  |  | 93 | 8.53 | 35 | 103 | 8.82 | 8.49 | 86 |  |  |
| COc1ccc2c(c1)c(/C=C1\C(=O)Nc3ccc(S(=O)(=O)N(C)C)cc31)cn2C | 80 | 71 | 103 | 64 | Active | Active | 98 | Active | Active | 89 | Active | Active | 97 | 15.2 | 91 | 46 | 11.7 | 10.1 | 102 | inactive | Activity [21]: Non-Toxic; solubility at 1 h [22]: 7.8 µM (≈ 3.21 µg/mL); IC50 [23]: 142 nM |

Second part, led by results:

| Activity [1] [%] | Activity [2] [%] | Activity [3] [%] | Activity [4] [%] | inhibition [5] | inhibition [6] | Activity [7] [%] | inhibition [8] | inhibition [10] | Activity [11] [%] | inhibition [12] | inhibition [13] | Activity [14] [%] | IC50 [15] [nM] | Activity [16] [%] | IC50 [17] [nM] | IC50 [18] [nM] | IC50 [19] [nM] | Activity [20] [%] | Compound | Activity [9] | further results |
| --- | --- | --- | --- | --- | --- | --- | --- | --- | --- | --- | --- | --- | --- | --- | --- | --- | --- | --- | --- | --- | --- |
| 75 | 50 | 101 | 32 | Active | Active | 101 | Active | Active | 89 | Active | Active | 90 |  |  |  |  |  |  | COc1ccc2c(c1)c(/C=C1\C(=O)Nc3ccc(S(N)(=O)=O)cc31)cn2C | inactive |  |
| 81 | 11 | 110 | 33 |  |  | 97 |  |  | 98 |  |  | 96 | 13.5 | 91 | 92.8 | 9.72 | 9.17 | 107 | CN(C)S(=O)(=O)c1ccc2c(c1)/C(=C/c1cn(C)c3ccc(O)cc13)C(=O)N2 |  |  |
| 81 | 76 | 98 | 41 | Active | Active | 105 | Active | Active | 84 | Active | Active | 87 |  |  |  |  |  |  | CNS(=O)(=O)c1ccc2c(c1)/C(=C/c1cn(C)c3ccc(OC)cc13)C(=O)N2 | inactive |  |
| 55 | 42 | 94 | 50 |  |  | 102 |  |  | 90 |  |  | 88 | 7.62 | 47 | 36.7 | 6.86 | 4.17 | 69 | Cn1cc(/C=C2\C(=O)Nc3ccc(S(N)(=O)=O)cc32)c2ccccc21 |  |  |
